# Tested on: liver metastasis of a breast carcinoma
# Experiment: treatment of the individual patient chosen according to the test results
# Assay type: in vivo, human
# From the text: Biopsy material of a liver metastasis of a breast carcinoma has been obtained from a patient.
Compound,tumor markers in controls (100 mg),"tumor marker CA15.3 after treatment (before treatment 22,230 units/ml, infused in two-weeks intervals according to standard protocols) [units]",malignant ascites (infused in two-weeks intervals)
Keytruda: PDL Antibody therapy,did not change tumor markers,–,–
CCc1c2c(nc3ccc(OC(=O)N4CCC(N5CCCCC5)CC4)cc13)-c1cc3c(c(=O)n1C2)COC(=O)[C@]3(O)CC [Irinotecan],–,1513,markedly reduced

# Source: patent US20220036967A1, “A METHOD TO DETERMINE AGENTS FOR PERSONALIZED USE” (priority 2018, published 2022)
